Measurements: patent US10407400B2, “Compounds, compositions, and methods for modulating sweet taste” (Chromocell Corporation, priority 2015, dated 2019)

Tested on: perception of sweet taste of High Fructose Corn Syrup (HFCS)
Experiment: Two-alternative forced choice (2AFC) sip and spit sensory test of perceived sweetness in Lemon Lime beverage
Format: in vivo, humans
Conditions: Lemon Lime beverage pH 3.1
Description: Effect of Test Compounds on the Perception of Sweet Taste of High Fructose Corn Syrup (HFCS) Two-alternative Forced Choice Method (2AFC). The effect of the test compounds and combinations of test compounds on the perception of the sweet taste of a flavored beverage (referred to as Lemon Lime henceforth) of sweetener in humans was evaluated using a two-alternative forced choice “sip and spit” method (2AFC). The Lemon Lime solutions were prepared by adding sucrose equivalent (SE) quantities of high fructose corn syrup (HFCS) (by weight), to water to achieve the desired concentration. The lemon lime pH is 3.1. Compounds were first prepared as a 500-fold concentrated stock solution in 100% ethanol. These concentrated stocks were then added to the aqueous sweetener solutions to result in a final ethanol concentration of 0.2%. […] In this manner, compounds were not assessed simply for an increase in perceived sweetness, but a significant increase in perceived sweetness above the positive control. […] Data were analyzed using binomial probabilities. Approximate levels of sweetness enhancement in column 5 of Table 1 were calculated as follows: Approximate levels of sweetness enhancement=Sweetener concentration of positive control surpassed by the test sample, divided by sweetener concentration for compound-containing sample (e.g. 1.5×=7.5brix HFCS/5brix HFCS).

## COc1cc(C2CC(=O)Oc3cc(C)cc(O)c32)ccc1O (racemic) [Compound 1, 5-hydroxy-4-(4-hydroxy-3-methoxyphenyl)-7-methylchroman-2-one]
Positive control 10brix HFCS surpassed, divided by test sample 7.14brix HFCS, compound concentration 25 ppm (1) or 41.25 ppm (1 & 4)
  Fold increase in perceived sweetness: >1.4X
Test sample 7.14brix HFCS with compound surpassed positive control 10brix HFCS, taste panelists n≥15, 0.2% ethanol
  Compound concentration with positive 2AFC results: 25 ppm
